Data as given in patent publication US9636418B2 (priority 2013, dated 2017).
pIC50: −log10 of the molar value. “And” between values parts separate entries of the source, which are not always exact repeats. Equal values may be shown once.

What was measured:
Assay in all cases: cell-based
hNav1.4 = hNav1.4 (Homo sapiens, UniProt P35499); conditions: for pIC50: IonWorks Quattro, read-out: IC50 Nav1.4; for Nav1.4/Nav1.7: ratio of IonWorks Quattro IC50 values
hNav1.5 = hNav1.5 (Homo sapiens, UniProt Q14524); conditions: IonWorks Quattro; read-out: IC50 Nav1.5
hNav1.7 = hNav1.7 (Homo sapiens, UniProt Q15858); conditions: IonWorks Quattro; read-out: IC50 Nav1.7
hNav1.3 = hNav1.3 (Homo sapiens, UniProt Q9NY46); conditions: IonWorks Quattro; read-out: IC50 Nav1.3
hNav1.3, sequence (Q9NY46 whole entry): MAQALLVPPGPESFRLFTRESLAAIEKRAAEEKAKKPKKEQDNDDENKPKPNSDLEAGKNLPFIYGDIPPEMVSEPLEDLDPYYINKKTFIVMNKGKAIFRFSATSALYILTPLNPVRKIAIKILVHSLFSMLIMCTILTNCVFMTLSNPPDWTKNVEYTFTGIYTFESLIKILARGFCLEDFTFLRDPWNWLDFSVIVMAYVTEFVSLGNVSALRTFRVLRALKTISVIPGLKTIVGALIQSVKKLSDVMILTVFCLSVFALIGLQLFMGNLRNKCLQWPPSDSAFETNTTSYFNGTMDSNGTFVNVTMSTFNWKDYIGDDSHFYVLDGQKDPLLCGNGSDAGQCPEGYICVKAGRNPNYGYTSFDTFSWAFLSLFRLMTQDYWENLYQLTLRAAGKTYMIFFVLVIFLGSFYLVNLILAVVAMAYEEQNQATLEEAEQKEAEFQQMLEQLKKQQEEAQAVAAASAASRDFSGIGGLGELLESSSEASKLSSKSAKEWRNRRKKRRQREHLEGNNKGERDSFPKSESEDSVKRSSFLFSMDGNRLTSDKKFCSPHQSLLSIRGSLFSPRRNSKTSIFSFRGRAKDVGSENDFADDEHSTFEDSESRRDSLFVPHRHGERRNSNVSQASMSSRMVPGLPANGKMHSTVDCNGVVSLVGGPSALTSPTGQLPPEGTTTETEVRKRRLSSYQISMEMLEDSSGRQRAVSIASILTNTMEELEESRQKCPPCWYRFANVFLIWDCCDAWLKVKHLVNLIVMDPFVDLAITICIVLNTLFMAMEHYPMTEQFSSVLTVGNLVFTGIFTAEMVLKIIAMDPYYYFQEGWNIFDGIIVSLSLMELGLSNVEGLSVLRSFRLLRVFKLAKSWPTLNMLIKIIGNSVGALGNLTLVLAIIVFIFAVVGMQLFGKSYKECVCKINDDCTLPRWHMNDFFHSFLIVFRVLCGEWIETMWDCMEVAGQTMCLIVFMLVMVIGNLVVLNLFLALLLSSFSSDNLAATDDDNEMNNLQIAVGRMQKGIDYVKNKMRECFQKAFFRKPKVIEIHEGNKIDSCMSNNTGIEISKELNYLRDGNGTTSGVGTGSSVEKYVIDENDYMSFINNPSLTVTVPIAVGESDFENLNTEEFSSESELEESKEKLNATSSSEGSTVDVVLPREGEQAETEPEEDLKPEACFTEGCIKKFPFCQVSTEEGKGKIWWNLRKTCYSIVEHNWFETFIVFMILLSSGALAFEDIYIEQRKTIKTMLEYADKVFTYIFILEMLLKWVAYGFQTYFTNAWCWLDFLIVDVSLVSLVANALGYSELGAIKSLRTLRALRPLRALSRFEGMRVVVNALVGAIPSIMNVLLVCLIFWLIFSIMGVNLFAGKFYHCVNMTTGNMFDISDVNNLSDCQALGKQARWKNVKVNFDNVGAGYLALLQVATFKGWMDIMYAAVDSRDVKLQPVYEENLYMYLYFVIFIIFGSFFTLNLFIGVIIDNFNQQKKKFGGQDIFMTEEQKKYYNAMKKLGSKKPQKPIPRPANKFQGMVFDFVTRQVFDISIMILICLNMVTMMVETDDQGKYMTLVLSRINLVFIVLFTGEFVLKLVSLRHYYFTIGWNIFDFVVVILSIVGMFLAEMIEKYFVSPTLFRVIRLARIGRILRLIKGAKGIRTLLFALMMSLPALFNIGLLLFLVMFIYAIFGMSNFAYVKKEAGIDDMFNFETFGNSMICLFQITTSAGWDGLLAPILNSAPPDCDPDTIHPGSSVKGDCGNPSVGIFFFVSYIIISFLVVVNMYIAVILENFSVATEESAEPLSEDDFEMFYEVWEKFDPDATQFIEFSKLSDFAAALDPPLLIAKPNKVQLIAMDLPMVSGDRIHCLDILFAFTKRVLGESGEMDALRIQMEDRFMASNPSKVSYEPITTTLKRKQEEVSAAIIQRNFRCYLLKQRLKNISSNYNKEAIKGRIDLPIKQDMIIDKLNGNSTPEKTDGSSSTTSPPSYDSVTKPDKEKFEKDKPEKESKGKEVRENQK

hNav1.4, sequence (P35499 whole entry): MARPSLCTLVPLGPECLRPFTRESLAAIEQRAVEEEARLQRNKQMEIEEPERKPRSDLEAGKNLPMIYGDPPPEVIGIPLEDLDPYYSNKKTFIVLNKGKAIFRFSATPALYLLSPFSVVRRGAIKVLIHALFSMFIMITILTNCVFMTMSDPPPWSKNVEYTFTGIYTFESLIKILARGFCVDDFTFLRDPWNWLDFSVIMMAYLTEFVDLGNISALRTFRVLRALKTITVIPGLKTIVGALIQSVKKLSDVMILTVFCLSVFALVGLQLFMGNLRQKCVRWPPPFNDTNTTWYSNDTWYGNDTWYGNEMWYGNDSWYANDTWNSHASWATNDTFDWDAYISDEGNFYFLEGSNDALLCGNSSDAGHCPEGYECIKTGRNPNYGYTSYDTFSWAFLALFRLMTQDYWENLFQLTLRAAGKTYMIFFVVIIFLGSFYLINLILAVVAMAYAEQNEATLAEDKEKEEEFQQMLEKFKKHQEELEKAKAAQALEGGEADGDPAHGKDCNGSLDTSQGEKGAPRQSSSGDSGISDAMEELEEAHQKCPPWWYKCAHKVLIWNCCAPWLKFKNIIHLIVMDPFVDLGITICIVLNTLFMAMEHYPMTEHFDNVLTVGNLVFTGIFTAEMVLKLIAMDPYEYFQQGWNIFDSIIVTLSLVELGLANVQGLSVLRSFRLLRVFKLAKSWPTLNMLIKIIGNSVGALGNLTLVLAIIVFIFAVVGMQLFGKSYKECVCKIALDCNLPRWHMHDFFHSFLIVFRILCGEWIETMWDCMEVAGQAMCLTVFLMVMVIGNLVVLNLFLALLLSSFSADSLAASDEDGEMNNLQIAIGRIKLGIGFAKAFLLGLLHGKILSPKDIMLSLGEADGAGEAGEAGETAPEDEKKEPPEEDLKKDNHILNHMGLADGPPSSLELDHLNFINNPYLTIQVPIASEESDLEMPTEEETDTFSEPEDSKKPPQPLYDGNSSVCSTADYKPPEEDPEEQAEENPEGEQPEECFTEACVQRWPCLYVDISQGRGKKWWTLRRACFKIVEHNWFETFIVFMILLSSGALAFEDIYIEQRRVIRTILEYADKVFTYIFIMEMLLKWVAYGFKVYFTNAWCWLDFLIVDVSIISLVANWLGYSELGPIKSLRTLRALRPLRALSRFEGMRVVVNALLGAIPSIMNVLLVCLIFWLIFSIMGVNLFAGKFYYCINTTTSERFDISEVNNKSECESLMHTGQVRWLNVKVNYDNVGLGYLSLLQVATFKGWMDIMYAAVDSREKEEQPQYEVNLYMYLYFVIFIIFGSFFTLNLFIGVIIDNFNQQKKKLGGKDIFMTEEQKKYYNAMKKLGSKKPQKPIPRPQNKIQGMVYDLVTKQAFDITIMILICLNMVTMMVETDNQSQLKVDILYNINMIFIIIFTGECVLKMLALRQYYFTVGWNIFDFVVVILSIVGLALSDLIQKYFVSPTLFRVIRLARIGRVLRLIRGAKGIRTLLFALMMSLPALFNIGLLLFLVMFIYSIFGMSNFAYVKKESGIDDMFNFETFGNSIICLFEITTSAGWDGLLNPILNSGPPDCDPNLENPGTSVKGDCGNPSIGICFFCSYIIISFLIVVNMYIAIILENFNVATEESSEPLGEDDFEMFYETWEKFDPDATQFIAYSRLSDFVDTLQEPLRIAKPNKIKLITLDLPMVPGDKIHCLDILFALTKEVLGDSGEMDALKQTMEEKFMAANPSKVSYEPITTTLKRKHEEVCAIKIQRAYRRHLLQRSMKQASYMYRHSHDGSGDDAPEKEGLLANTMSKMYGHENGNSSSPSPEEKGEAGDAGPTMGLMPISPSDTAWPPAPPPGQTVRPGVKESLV

Row | Compound | pIC50 (hNav1.4) | pIC50 (hNav1.5) | pIC50 (hNav1.7) | pIC50 (hNav1.3) | Nav1.4/Nav1.7 (hNav1.4)
1 | CSCC[C@@H]1NC(=O)[C@H](Cc2c[nH]c3ccccc23)NC(=O)[C@H](CCCCN)NC(=O)[C@H](CCC(N)=O)NC(=O)[C@@H](NC(=O)[C@@H](N)Cc2ccc(O)cc2)CSSC[C@@H]2NC(=O)[C@@H]3CSSC[C@@H](C(=O)N[C@@H](CCCNC(=N)N)C(=O)N[C@@H](CCCCN)C(=O)N[C@@H](Cc4ccc(O)cc4)C(=O)N[C@@H](CC(N)=O)C(N)=O)NC(=O)[C@H](Cc4c[nH]c5ccccc45)NC(=O)[C@H](CC(C)C)NC(=O)[C@H](CCCCN)NC(=O)[C@H](CSSC[C@H](NC(=O)[C@H]([C@@H](C)O)NC(=O)[C@H](Cc4c[nH]c5ccccc45)NC1=O)C(=O)N[C@@H](CC(=O)O)C(=O)N[C@@H](CO)C(=O)N[C@@H](CCCCN)C(=O)N[C@@H](CCCNC(=N)N)C(=O)N[C@@H](C)C(=O)N3)NC(=O)[C@H](CCC(=O)O)NC(=O)[C@H](CC(C)C)NC(=O)CNC(=O)[C@H](CCC(=O)O)NC2=O [compound 243] | < 5.30 | < 5.30 | 6.28 | < 5.30 | 
2 | CCC[C@@H]1NC(=O)[C@H](CC(C)C)NC(=O)CNC(=O)[C@H](CCC(=O)O)NC(=O)[C@@H]2CSSC[C@H](NC(=O)[C@@H](N)Cc3ccc(O)cc3)C(=O)N[C@@H](CCC(N)=O)C(=O)N[C@@H](CCCCN)C(=O)N[C@@H](Cc3c[nH]c4ccccc34)C(=O)N[C@@H](CCSC)C(=O)N[C@@H](Cc3c[nH]c4ccccc34)C(=O)N[C@@H]([C@@H](C)O)C(=O)N[C@H]3CSSC[C@H](NC1=O)C(=O)N[C@@H](CCCCN)C(=O)N[C@@H](CC(C)C)C(=O)N[C@@H](Cc1c[nH]c4ccccc14)C(=O)N[C@H](C(=O)N[C@@H](CCCNC(=N)N)C(=O)N[C@@H](CCCCN)C(=O)N[C@H](C(=O)N[C@H](C(N)=O)[C@@H](C)CC)[C@@H](C)CC)CSSC[C@H](NC(=O)[C@H](C)NC(=O)[C@H](CCCNC(=N)N)NC(=O)[C@H](CCCCN)NC(=O)[C@H](CO)NC(=O)[C@H](CC(=O)O)NC3=O)C(=O)N2 [compound 123] | 5.51 | 4.98 | 6.77 | < 5.30 | 19
3 | CC[C@H](C)[C@H](NC(=O)[C@H](Cc1ccc(O)cc1)NC(=O)[C@H](CCCCN)NC(=O)[C@H](CCCNC(=N)N)NC(=O)[C@@H]1CSSC[C@@H]2NC(=O)[C@H](C)NC(=O)[C@H](CCCNC(=N)N)NC(=O)[C@H](CCCCN)NC(=O)[C@H](CO)NC(=O)[C@H](CC(=O)O)NC(=O)[C@@H]3CSSC[C@H](NC(=O)[C@H](CCC(=O)O)NC(=O)[C@H](CC(C)C)NC(=O)CNC(=O)[C@H](CCC(=O)O)NC(=O)[C@H](CSSC[C@H](NC(=O)[C@@H](N)Cc4ccc(O)cc4)C(=O)N[C@@H](CCC(N)=O)C(=O)N[C@@H](CCCCN)C(=O)N[C@@H](Cc4c[nH]c5ccccc45)C(=O)N[C@@H](CCSC)C(=O)N[C@@H](CCCCN)C(=O)N[C@@H]([C@@H](C)O)C(=O)N3)NC2=O)C(=O)N[C@@H](CCCCN)C(=O)N[C@@H](CC(C)C)C(=O)N[C@@H](Cc2c[nH]c3ccccc23)C(=O)N1)C(N)=O [compound 214] | < 5.15 | < 5.15 | 5.57 | < 5.15 | 
4 | CSCC[C@@H]1NC(=O)[C@H](Cc2c[nH]c3ccccc23)NC(=O)[C@H](CCCCN)NC(=O)[C@H](CCC(N)=O)NC(=O)[C@@H](NC(=O)[C@@H](N)Cc2ccc(O)cc2)CSSC[C@@H]2NC(=O)[C@@H]3CSSC[C@@H](C(=O)N[C@@H](CCCNC(=N)N)C(=O)N[C@@H](CCCCN)C(=O)N[C@@H](Cc4ccc(O)cc4)C(=O)N[C@@H](CCCCN)C(N)=O)NC(=O)[C@H](Cc4c[nH]c5ccccc45)NC(=O)[C@H](CC(C)C)NC(=O)[C@H](CCCCN)NC(=O)[C@H](CSSC[C@H](NC(=O)[C@H]([C@@H](C)O)NC(=O)[C@H](Cc4c[nH]c5ccccc45)NC1=O)C(=O)N[C@@H](CC(=O)O)C(=O)N[C@@H](CO)C(=O)N[C@@H](CCCCN)C(=O)N[C@@H](CCCNC(=N)N)C(=O)N[C@@H](C)C(=O)N3)NC(=O)[C@H](CCC(=O)O)NC(=O)[C@H](CC(C)C)NC(=O)CNC(=O)[C@H](CCC(=O)O)NC2=O [compound 242] | < 5.30 | < 5.30 | 6.35 and 6.20 | < 5.30 | 
5 | CC[C@H](C)[C@H](NC(=O)[C@H](Cc1ccc(O)cc1)NC(=O)[C@H](CCCCN)NC(=O)[C@H](CCCNC(=N)N)NC(=O)[C@@H]1CSSC[C@@H]2NC(=O)[C@H](C)NC(=O)[C@H](CCCNC(=N)N)NC(=O)[C@H](CCCCN)NC(=O)[C@H](CO)NC(=O)[C@H](CC(=O)O)NC(=O)[C@@H]3CSSC[C@H](NC(=O)[C@H](CCC(=O)O)NC(=O)[C@H](CC(C)C)NC(=O)CNC(=O)[C@H](CCC(=O)O)NC(=O)[C@H](CSSC[C@H](NC(=O)[C@@H](N)Cc4ccc(O)cc4)C(=O)N[C@@H](CCC(N)=O)C(=O)N[C@@H](CCCCN)C(=O)N[C@@H](CCCNC(N)=O)C(=O)N[C@@H](CCSC)C(=O)N[C@@H](Cc4c[nH]c5ccccc45)C(=O)N[C@@H]([C@@H](C)O)C(=O)N3)NC2=O)C(=O)N[C@@H](CCCCN)C(=O)N[C@@H](CC(C)C)C(=O)N[C@@H](Cc2c[nH]c3ccccc23)C(=O)N1)C(N)=O [compound 199] | < 5.30 | < 5.30 | < 5.30 | < 5.30 | 
6 | CC[C@H](C)[C@H](NC(=O)[C@H](Cc1ccc(O)cc1)NC(=O)[C@H](CCCCN)NC(=O)[C@H](CCCNC(=N)N)NC(=O)[C@@H]1CSSC[C@@H]2NC(=O)[C@H](C)NC(=O)[C@H](CCCNC(=N)N)NC(=O)[C@H](CCCCN)NC(=O)[C@H](CO)NC(=O)[C@H](CC(=O)O)NC(=O)[C@@H]3CSSC[C@H](NC(=O)[C@H](CCC(=O)O)NC(=O)[C@H](CC(C)C)NC(=O)CNC(=O)[C@H](CCC(=O)O)NC(=O)[C@H](CSSC[C@H](NC(=O)[C@@H](N)Cc4ccc(O)cc4)C(=O)N[C@@H](CCC(N)=O)C(=O)N[C@@H](CCCCN)C(=O)N[C@@H](Cc4c[nH]c5ccccc45)C(=O)N[C@@H](CCSC)C(=O)N[C@@H](CCCNC(N)=O)C(=O)N[C@@H]([C@@H](C)O)C(=O)N3)NC2=O)C(=O)N[C@@H](CCCCN)C(=O)N[C@@H](CC(C)C)C(=O)N[C@@H](Cc2c[nH]c3ccccc23)C(=O)N1)C(N)=O [compound 213] | < 5.15 | < 5.15 | 5.24 | < 5.15 | 
7 | CCCC[C@@H]1NC(=O)[C@H](CC(C)C)NC(=O)[C@H](CCCCN)NC(=O)[C@@H]2CSSC[C@@H]3NC(=O)[C@H]([C@@H](C)O)NC(=O)[C@H](Cc4c[nH]c5ccccc45)NC(=O)[C@H](CCSC)NC(=O)[C@H](Cc4c[nH]c5ccccc45)NC(=O)[C@H](CCCCN)NC(=O)[C@H](CCC(N)=O)NC(=O)[C@@H](NC(=O)[C@@H](N)Cc4ccc(O)cc4)CSSC[C@H](NC(=O)[C@H](CSSC[C@@H](C(=O)N[C@@H](CCCNC(=N)N)C(=O)N[C@@H](CCCCN)C(=O)N[C@@H](Cc4ccc(O)cc4)C(=O)N[C@H](C(N)=O)[C@@H](C)CC)NC1=O)NC(=O)[C@H](C)NC(=O)[C@H](CCCNC(=N)N)NC(=O)[C@H](CCCCN)NC(=O)[C@H](CO)NC(=O)[C@H](CC(=O)O)NC3=O)C(=O)N[C@@H](CCC(=O)O)C(=O)NCC(=O)N[C@@H](CC(C)C)C(=O)N[C@@H](CCC(=O)O)C(=O)N2 [compound 225] | < 5.30 | < 5.30 | < 5.30 | < 5.30 | 
8 | CC[C@H](C)[C@H](NC(=O)[C@H](Cc1ccc(O)cc1)NC(=O)[C@H](CCCCN)NC(=O)[C@H](CCCNC(=N)N)NC(=O)[C@@H]1CSSC[C@@H]2NC(=O)[C@H](C)NC(=O)[C@H](CCCNC(=N)N)NC(=O)[C@H](CCCCN)NC(=O)[C@H](CO)NC(=O)[C@H](CC(=O)O)NC(=O)[C@@H]3CSSC[C@H](NC(=O)[C@H](CCC(=O)O)NC(=O)[C@H](CC(C)C)NC(=O)CNC(=O)[C@H](CCC(=O)O)NC(=O)[C@H](CSSC[C@H](NC(=O)[C@@H](N)Cc4ccc(O)cc4)C(=O)N[C@@H](CCC(N)=O)C(=O)N[C@@H](CCCCN)C(=O)N[C@@H](CCC(=O)O)C(=O)N[C@@H](CCSC)C(=O)N[C@@H](Cc4c[nH]c5ccccc45)C(=O)N[C@@H]([C@@H](C)O)C(=O)N3)NC2=O)C(=O)N[C@@H](CCCCN)C(=O)N[C@@H](CC(C)C)C(=O)N[C@@H](Cc2c[nH]c3ccccc23)C(=O)N1)C(N)=O [compound 203] | < 5.15 | < 5.15 | < 5.15 | < 5.15 | 
9 | CC[C@H](C)[C@H](NC(=O)[C@@H](NC(=O)[C@H](CCCCN)NC(=O)[C@H](CCCNC(=N)N)NC(=O)[C@@H]1CSSC[C@@H]2NC(=O)[C@H](C)NC(=O)[C@H](CCCNC(=N)N)NC(=O)[C@H](CCCCN)NC(=O)[C@H](CO)NC(=O)[C@H](CC(=O)O)NC(=O)[C@@H]3CSSC[C@H](NC(=O)[C@H](CO)NC(=O)[C@H](CC(C)C)NC(=O)CNC(=O)[C@H](CCC(=O)O)NC(=O)[C@H](CSSC[C@H](NC(=O)[C@@H](N)Cc4ccc(O)cc4)C(=O)N[C@@H](CCC(N)=O)C(=O)N[C@@H](CCCCN)C(=O)N[C@@H](Cc4c[nH]c5ccccc45)C(=O)N[C@@H](CCSC)C(=O)N[C@@H](Cc4c[nH]c5ccccc45)C(=O)N[C@@H]([C@@H](C)O)C(=O)N3)NC2=O)C(=O)N[C@@H](CCCCN)C(=O)N[C@@H](CC(C)C)C(=O)N[C@@H](Cc2c[nH]c3ccccc23)C(=O)N1)[C@@H](C)CC)C(N)=O [compound 125] | 6.40 | 5.04 | 7.52 | 6.54 | 17
